Data published in patent US20060052414A1, “Compositions and methods for treating or preventing Hepadnaviridae infection” (priority 2004, published 2006).
Where two headings read alike, the source gives them in different places.

Assays:
HepG 2.2.15 = assay: Cytotoxicity, neutral red dye uptake; conditions: for Cytotoxicity - Neutral Red Dye Uptake: 24 hours after final treatment
Description: (§1) Cytotoxicity analyses were also performed in order to assess whether any observed antiviral effects were due to a general effect on cell viability. This analysis was performed on 96-well plates seeded at the same time and with the identical pool of stock cells used for the antiviral assay described in Example 1. […] Cellular uptake of neutral red dye was used to determine the relative level of toxicity 24 hours after the final treatment. A cell that is viable will take up the neutral red dye, while a dead cell will not. The absorbance of internalized dye at 510 nm (A510) was used for quantitative analysis. Values are presented as a percentage of the average A510 values (±standard deviation, SD) in 9 separate cultures of untreated cells on the same plate.
(§2) The EC90 and CC50 values were used to calculate a Selectivity Index (SI, CC50/EC90) because at least a […] reduction in HBV levels is considered as having achieved statistical significance in this assay (see Korba & Gerin, Antiviral Res. 19:55-70,1992).

HBV = assay: Anti-HBV antiviral assay: extracellular HBV virion DNA by Southern blot in HepG 2.2.15 cultures; type: cell-based, hepatitis B virus
Description: Confluent cultures of chronic HBV producing cell line HepG 2.2.15 in 96-well tissue culture plates in RPMI 1640 medium with 2% fetal bovine serum were used for the antiviral analysis of castanospermine esters (see Korba and Gerin, Antivir. Res. 19:55-70, 1992).
Extracellular HBV nucleic acid levels were measured 24 hours after the last treatment by Southern blot hybridization (quantified via densitometry using equipment and methods known in the art) as a measure of the number of HBV virions produced.
Based on the hybridization analysis, about 1.0 pg extracellular HBV DNA/ml of culture medium is roughly equivalent to about 3×10^5 viral particles/ml. Values ±standard deviations (SD) were calculated by linear regression analysis using data combined from all treated cultures. SDs were calculated using the standard error of regression generated from the linear regression analyses.

[1] = Cytotoxicity, neutral red dye uptake; conditions: human
Description: as §1, §2

[2] = Hepatitis B virus, HepG2.2.15, Table 5, monotherapy, or celgosivir concentration in combination with ADV

## CCCC(=O)O[C@H]1CN2CC[C@H](O)[C@@H]2[C@@H](O)[C@@H]1O [Celgosivir, [1S-(1α,6β,7α,8β,8aβ)]-octahydro-1,6,7,8-indolizinetetrol 6-butanoate]
HepG 2.2.15; Table 5, 2-fold reduction in neutral red dye uptake, value for the drug named, >1000 = highest concentration tested
  CC50: > 1000 µM
HBV; 15 μM (first panel), 9 daily doses, untreated cells 121 pg/mL
  HBV Virion DNA Levels: 113 ± 9 pg/mL culture medium
HBV; 15 μM celgosivir (third panel; combinations plus ADV at the molar ratio)
  HBV Virion DNA Levels: 111 ± 8 pg/mL culture medium
HBV; 50 μM (first panel), 9 daily doses, untreated cells 121 pg/mL
  HBV Virion DNA Levels: 56 ± 4 pg/mL culture medium
HBV; 50 μM celgosivir (third panel; combinations plus ADV at the molar ratio), assay sensitivity 0.1 pg/mL
  HBV Virion DNA Levels: 53 ± 6 pg/mL culture medium
HBV; 150 μM (first panel), 9 daily doses, untreated cells 121 pg/mL
  HBV Virion DNA Levels: 17 ± 2 pg/mL culture medium
HBV; 150 μM celgosivir (third panel; combinations plus ADV at the molar ratio), assay sensitivity 0.1 pg/mL
  HBV Virion DNA Levels: 16 ± 2 pg/mL culture medium
HBV; 300 μM, 9 daily doses, extracellular, 24 hours after last treatment, untreated cells 121 pg/mL
  HBV Virion DNA Levels: 8 ± 1 pg/mL culture medium
HBV; Table 3, concentration giving 2-fold reduction in HBV DNA vs untreated cultures, read-out: EC50
  EC50: 28 ± 1.4 µM
HBV; Table 3, concentration giving 10-fold reduction in HBV DNA vs untreated cultures, read-out: EC90
  EC90: 158 ± 22 µM
HBV; Table 5, monotherapy, or celgosivir concentration in combination with ADV, read-out: EC50
  EC50: 24 ± 1.2 µM
HBV; Table 5, monotherapy, or celgosivir concentration in combination with ADV, read-out: EC90
  EC90: 147 ± 15 µM
HBV; summary of Tables 2 and 3
  HBV virion production by the 2.2.15 cells, in words: caused a reduction in HBV virion production

## Nc1ccn([C@@H]2CS[C@H](CO)O2)c(=O)n1 [Compound 3TC, (−)2′,3′-dideoxy, 3′-thiacytidine]
[1]
  CC50: 2340 ± 89 µM
HBV; Hepatitis B virus, HepG2.2.15, Table 3, concentration giving 2-fold reduction in HBV DNA vs untreated cultures
  EC50: 0.058 ± 0.004 µM
HBV; Hepatitis B virus, HepG2.2.15, Table 3, concentration giving 10-fold reduction in HBV DNA vs untreated cultures
  EC90: 0.177 ± 0.015 µM
HBV; [2]
  EC50: 0.058 ± 0.004 µM
  EC90: 0.177 ± 0.015 µM
HBV; Table 5, monotherapy, or celgosivir in combination with ADV
  Selectivity Index (CC50/EC90): 11,709

## CC(C)(C)C(=O)OCOP(=O)(COCCn1cnc2c(N)ncnc21)OCOC(=O)C(C)(C)C [ADV, adefovir dipivoxil]
[1]
  CC50: 468 ± 17 µM
HepG 2.2.15; 30 μM (combinations: dose of celgosivir)
  Cytotoxicity - Neutral Red Dye Uptake: 100% ± 2 % of Control
HepG 2.2.15; 100 μM (combinations: dose of celgosivir)
  Cytotoxicity - Neutral Red Dye Uptake: 98% ± 1 % of Control
HepG 2.2.15; 300 μM (combinations: dose of celgosivir)
  Cytotoxicity - Neutral Red Dye Uptake: 73% ± 2 % of Control
HepG 2.2.15; 1000 μM (combinations: dose of celgosivir)
  Cytotoxicity - Neutral Red Dye Uptake: 10% ± 1 % of Control
HBV; 0.3 μM ADV, untreated cells 121 pg/mL
  HBV Virion DNA Levels: 121 ± 13 pg/mL culture medium
HBV; 1.0 μM ADV, untreated cells 121 pg/mL
  HBV Virion DNA Levels: 55 ± 4 pg/mL culture medium
HBV; 3.0 μM ADV, untreated cells 121 pg/mL
  HBV Virion DNA Levels: 11 ± 2 pg/mL culture medium
HBV; 10 μM ADV, untreated cells 121 pg/mL
  HBV Virion DNA Levels: 3 ± 1 pg/mL culture medium
HBV; Hepatitis B virus, HepG2.2.15, Table 3, concentration giving 2-fold reduction in HBV DNA vs untreated cultures, read-out: EC50
  EC50: 0.95 ± 0.105 µM
HBV; Hepatitis B virus, HepG2.2.15, Table 3, concentration giving 10-fold reduction in HBV DNA vs untreated cultures, read-out: EC90
  EC90: 2.8 ± 0.1 µM
HBV; Hepatitis B virus, HepG2.2.15, Table 5, monotherapy, or celgosivir concentration in combination with ADV, read-out: EC50
  EC50: 1 ± 0.1 µM
HBV; Hepatitis B virus, HepG2.2.15, Table 5, monotherapy, or celgosivir concentration in combination with ADV, read-out: EC90
  EC90: 3 ± 0.1 µM
